# Data from patent publication US20170112564A1, “METHODS AND MATERIALS FOR TREATING HYPERTENSION” (Mayo Foundation for Medical Education and Research, priority 2014, published 2017).
# Tests used:
# [1] = system: young and older postmenopausal women; assay: Ganglionic (autonomic) blockade with trimethaphan camsylate in young and older postmenopausal women: blood pressure and muscle sympathetic nerve activity; format: in vivo, humans; conditions: during trimethaphan
# Text: FIG. 1 is a graph plotting muscle sympathetic nerve activity (MSNA; bursts/min) as measured using a microneurography technique for 24 humans. The dose indicates the amount of trimethaphan in mg/min it took to abolish the sympathetic nerve bursts. The MSNA bursts per minute is the amount of sympathetic bursts that occurred at baseline, prior to drug infusion.
# FIG. 2 is a graph plotting the same dose of trimethaphan in mg/min compared to the difference in mean arterial pressure (MAP) between baseline and at the final trimethaphan dose.
# The effect of ganglionic blockade on arterial blood pressure and how this relates to baseline muscle sympathetic nerve activity in 12 young (25±1 years) and 12 older postmenopausal (61±2 years) women were examined. The women were studied before and during autonomic blockade using trimethaphan camsylate. At baseline, muscle sympathetic nerve activity burst frequency and burst incidence were higher in the older women (33±3 versus 15±1 bursts/min; 57±5 versus 25±2 bursts/100 heartbeats, respectively; P<0.05). Muscle sympathetic nerve activity bursts were abolished by trimethaphan within minutes (e.g., between about 6 and about 35 minutes). […] Baseline muscle sympathetic nerve activity was associated with the decrease in mean arterial pressure during trimethaphan (r=−0.74; P<0.05). See, also, Barnes et al., Hypertension, 63:303-308 (2014).
# healthy humans = assay: Brief escalating doses of trimethaphan camsylate with beat-to-beat arterial pressure to distinguish high and low sympathetic activity individuals; format: in vivo; conditions: 24 healthy humans, infusion 1-4 mg/minute for 5-10 minutes
# Protocol: Both normal human subjects and patients with diseases such as resistant hypertension can have very wide ranges of baseline sympathetic activity. The following was developed to distinguish those individuals with high levels of baseline sympathetic activity from individuals with lower levels of baseline sympathetic activity. Trimethaphan camsylate, a ganglionic blocking drug, was administered (e.g., by infusion) at 1-4 mg/minute for 5-10 minutes to 24 healthy humans, while non-invasive beat-to-beat measurements of arterial pressure were made. […] The relationship between the fall in blood pressure and baseline sympathetic activity in a group of about 20-30 healthy women ranging in age from their early 20's to their later 60's was determined (FIGS. 1 and 2). Similar data were obtained using healthy men. […] Those individuals with an elevated level of sympathetic activity responsive to a ganglionic blocking drug (e.g., a reduction in the number of bursts per minute that is greater than 10 burst per minute) can be optimal candidates for sympatholytic therapy.
# [2] = older postmenopausal women (61±2 years, n=12)
compound,measurement,setting,value
"O=C1N(Cc2ccccc2)C2C[S+]3CCCC3C2N1Cc1ccccc1 (stereo not drawn) [trimethaphan, trimethaphan camsylate]",Muscle sympathetic nerve activity bursts,[1]; 12 young and 12 older postmenopausal women,abolished
same,decrease in mean arterial pressure,[1]; [2],−29±2 mm Hg
same,decrease in total peripheral resistance,[1]; [2],−10±1 mm Hg/L per minute
same,decrease in mean arterial pressure,"[1]; young women (25±1 years, n=12)",−9±2 mm Hg
same,decrease in total peripheral resistance,"[1]; young women (25±1 years, n=12)",−5±1 mm Hg/L per minute
same,fall in blood pressure,healthy humans,directly related to baseline sympathetic activity
